System: MSTO-211H xenograft
Test: Mouse xenograft MSTO-211H tumors compared to prior art TEAD inhibitor
Format: in vivo, BALB/c nude mice
Conditions: 7 days of treatment, PO BID, 12.5 mg/kg Compound 5
Protocol: This study evaluated the in vivo anti-tumor efficacy of test compounds in BALB/c nude mice for treatment of MSTO-211H xenograft of lung cancer.
The MSTO-211H tumor cells were maintained in vitro in RPMI 1640 medium supplemented with 10% Fetal bovine serum and 1% Antibiotic-Antimycotic at 37° C. in an atmosphere of 5% CO2 in air. The tumor cells were routinely subcultured twice weekly by trypsin-EDTA. The cells growing in an exponential growth phase were harvested and counted for tumor inoculation.
Each mouse was inoculated subcutaneously at the right flank with MSTO-211H tumor cells (10×10^6+50% matrigel/0.2 mL) for tumor development. Test subjects received vehicle (e.g., 0.5% CMC-Na+1% Tween80) beginning on day 7 after cell inoculation. […]
The major endpoint was to determine if the tumor growth could be delayed. Tumor size was measured twice a week in two dimensions using a caliper, and the volume was expressed in mm^3 using the formula: V=0.5 a×b^2 where a and b are the long and short diameters of the tumor, respectively. […]
Summary statistics, including mean and the standard error of the mean (SEM), were calculated for the tumor volume of each group at each time point. […]
One-tailed T test was performed to compare tumor volumes between two groups. All data were analyzed using GraphPad Prism 6.0. p<0.05 was considered to be statistically significant.

In the case of Cn1cnc(-c2cc([C@@]3(C)CCNC3=O)ccc2Nc2ccc(C(F)(F)F)cc2)c1 (single isomer, unassigned) [Compound 5, 3-methyl-3-(3-(1-methyl-1H-imidazol-4-yl)-4-((4-(trifluoromethyl)phenyl)amino)phenyl)pyrrolidin-2-one], the “change in tumor volume (in words)” value is reported as “tumor reduction was observed”.

From patent US20260317304A1, “TEAD INHIBITORS AND METHODS OF USE” (Sporos BioDiscovery, Inc., priority 2022, published 2026)
